Where two headings read alike, the source gives them in different places.
What was measured:
[1] = Plasma stability test, rat plasma; details: for half-life: rat, plasma
Text: The purpose of this experiment was to detect the stability of the example compounds in plasma of mouse, rat, dog and human.
(§1) Liquid chromatography-mass spectrometer, centrifuge, vortexer, pipette, continuous dispenser, 96-well plate, 50% methanol aqueous solution, acetonitrile solution containing internal standard, blank matrix (plasma of rat, dog, or human), Propantheline (propantheline bromide), Mevinolin (lovastatin), and test compound.
(§2) After whole blood was collected from animals or humans, it was placed in a test tube containing an anticoagulant and centrifuged at 3500 rpm for 10 min to collect the upper pale yellow plasma.
(§3) The compound was weighed and the stock solution was formulated with DMSO and the working solution was formulated with 100 mM phosphate buffer.
2.36 mg of propantheline bromide was weighed and diluted with 1 mL of DMSO into a 10 mM stock solution; 10 µL of 10 mM stock solution was pipetted into 1 mL of 100 mM phosphate buffer to achieve a final concentration of 100 µM.
4.05 mg of lovastatin was weighed and diluted with 1 mL of DMSO into a 10 mM stock solution; 10 µL of 10 mM stock solution was pipetted into 1 mL of 100 mM phosphate buffer to achieve a final concentration of 100 µM.
• 1) In a 96-well plate, 285 µL of plasma and 15 µL of 10 µM compound (test compound) were added in sequence and incubated at 37°C. • 2) 40 µL was taken at 0, 15, 30, 60, 90, and 120 min (the sampling point can be fine-tuned) and 160 µL of acetonitrile stop solution containing internal standard was add. • 3) After centrifugation (3500 rpm, 10 min), 50 µL of supernatant was taken, and 50 µL of DDH2O added for dilution and then the obtained mixture was injected into LC-MS/MS.
• Instruments: Shimadzu LC-20 AD • Chromatographic column: Phenomenex Gemiu ® C18 (50*4.6 mm, 5 µm particle size); • mobile phase: A: Acetonitrile, B: 0.1% formic acid solution 0-8 min: 5% A→95% A, 2.0-2.1 min: 90%A→5% A; Flow rate: 0.8 mL/min; Run time: 5.0 min; Injection volume: 5 µL.
(§4) • Instrument: API4000 liquid chromatography-mass spectrometer, AB Company, USA; • the ion source was electrospray ionization source (ESI); • drying gas (N2) temperature was 500°C; • electrospray voltage was 5500V; • the detection method was positive ion detection; • the scanning method was selected reaction monitoring (MRM); • the scanning time was 0.1s.

[2] = Plasma stability test, dog plasma; format: in vitro ADME;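 note: parent compound left in dog plasma quantified by LC-MS with positive electrospray ionization, selected reaction monitoring and an internal standard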
Method: as §1, §2, §3, §4

[3] = test system: human colorectal cancer cell line (GP2D); assay: Anti-tumor efficacy in mouse transplanted tumor model of human colorectal cancer cell line (GP2D); format: in vivo, mice (BALB/c nude); details: PO*BID
Text: 8-10 week old female conventional immunodeficient mice (BALB/c nude) with a body weight of 18 g-22 g were used as experimental animals, and a transplanted tumor model of human colorectal cancer cell line (GP2D) was used to conduct in vivo efficacy experiments to test the anti-tumor results of the example compounds after gavage administration.
The example compounds of the present invention, made in house.
A certain amount of the example compound was weighed, and an appropriate amount of 10% vehicle (Solutol HS15) was added. The mixture was stirred on a magnetic stirrer for 0.5 h to formulate a homogeneous suspension at the desired concentration.
The human colorectal cancer cell line (GP2D) was derived from COBIOER BIOSCIENCES CO., LTD, cultured on DMEM medium (Gibco, 11995-065) supplemented with 10% fetal calf serum (Gibco, 10091-148) and 1% penicillin/streptomycin (Gibco, 15140-122) and observed under a microscope (Thermo Fisher, 311). The cells were routinely passaged when the cells reached 80%-90% confluence in the culture flask. The passaged cells were cultured in a 37°C, 5% CO2 incubator (Thermo Fisher, 311).
Under aseptic conditions, human colorectal cancer cells (GP2D) in the logarithmic growth phase were harvested using 0.25% trypsin-EDTA (Gibco, 25200-056), washed and resuspended with phosphate buffer. The cell suspension was mixed with Matrigel (Corning, 356234) at a 1 : 1 ratio (v/v) and implanted subcutaneously into the right anterior dorsal region of immunodeficient mice (BALB/c nude). Each mouse was inoculated with 5*10^6 cells in a volume of 100 microliters (µL). After inoculation, when the tumor volume reached 100-200 mm^3, the mice would be evenly randomized into 5 groups based on the tumor size, with 5 mice per group, for in vivo efficacy experiments. The positive control group was the compound MRTX-1133, and the negative control group was the vehicle group.
Mode of administration: The positive control group was intraperitoneally injected, and the example compounds were administered orally.
Twice a week, the long and short diameters of the tumor were measured using a vernier caliper, and the tumor volume (mm^3) was calculated using the formula: V = 0.5*D*d*d, where D and d are the long and short diameters of the tumor, respectively. The anti-tumor efficacy was determined by dividing the average increase in tumor volume of compound-treated animals by the average increase in tumor volume of untreated animals. The calculation formula for tumor inhibition rate was: When there is no tumor regression, TGI(%) = 100-[(Vt-V0) administration group/(Vt-V0) vehicle control group]*100%. When tumor regression occurs, TGI(%) = [1-(V1-V0) administration group/V0 vehicle control group]* 100%. All animals were euthanized after the experiment.

[4] = test system: human colorectal cancer cell line (GP2D); assay: as above; format: in vivo, mice (BALB/c nude); details: 30mpk, PO*BID, Day 14
[5] = Pharmacokinetic determination in rats (IV and PO, plasma, LCMS/MS); format: in vivo, SD rats
Method in brief: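 Male SD rats (3/group), fasted overnight, dosed PO at 30 mg/kg in 10% Captisol/50 mM citrate pH 5.0 or IV at 1 mg/kg in 5% DMSO/10% Solutol HS15/85% PBS. Jugular plasma (EDTA-2K) sampled predose to 24 h; analysed by LCMS/MS.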

[6] = Plasma stability test, mouse plasma; format: in vitro ADME; details: for half-life: read-out: t1/2 (converted);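 for all read-outs here: test compound quantified by LC-MS using positive-mode electrospray ionization and MRM scanning, with an internal standard added in acetonitrile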
Method: as §1, §2, §3, §4

[7] = PO 30 mg/kg vs IV 1 mg/kg, male SD rats
[8] = IV, 1 mg/kg, male SD rats, overnight fasting, plasma
[9] = PO, 30 mg/kg, male SD rats, overnight fasting, plasma

Compound: C#Cc1c(F)ccc2cc(O)cc(-c3nc4c5c(nc(OCC6(CN7CCC(=CF)CC7)CC6)nc5c3F)N3C[C@H]5CC[C@H](N5)[C@H]3[C@H](C)O4)c12 [Example 129, 5-ethynyl-6-fluoro-4-((5S,5aS,6S,9R)-1-fluoro-12-((1-((4-(fluoromethylene)piperidin-1-yl)methyl)cyclopropyl)methoxy)-5-methyl-5a,6,7,8,9,10-hexahydro-5H-4-oxa-3,10a,11,13,14-pentaaza-6,9-methylnaphtho[1,8-ab]hept-2-yl)naphthalen-2-ol]
- Remaining rate (%) 0 min ([1]; Rat plasma, 37°C, 0 min): 100.00%
- Remaining rate (%) 15 min ([1]; Rat plasma, 37°C, 15 min): 110.22%
- Remaining rate (%) 30 min ([1]; Rat plasma, 37°C, 30 min): 98.09%
- Remaining rate (%) 60 min ([1]; Rat plasma, 37°C, 60 min): 106.43%
- Remaining rate (%) 120 min ([1]; Rat plasma, 37°C, 120 min): 95.62%
- half-life [1]: 41.2 h
- t1/2 ([2]; Dog plasma, 37°C): ∞
- Remaining rate (%) 0 min ([2]; Dog plasma, 37°C, 0 min): 100.00%
- Remaining rate (%) 15 min ([2]; Dog plasma, 37°C, 15 min): 100.48%
- Remaining rate (%) 30 min ([2]; Dog plasma, 37°C, 30 min): 100.22%
- Remaining rate (%) 60 min ([2]; Dog plasma, 37°C, 60 min): 97.42%
- Remaining rate (%) 120 min ([2]; Dog plasma, 37°C, 120 min): 110.22%
- Tumor volume (mm^3, Mean ± SD) Day 0 ([3]; 30mpk): 167 mm^3
- TGI(%) Day 14 ([3]; 30mpk): 133.12%
- ΔT/ΔC(%) Day 14 ([3]; 30mpk): 14.15%
- Tumor volume (mm^3, Mean ± SD) Day 0 ([3]; 100mpk): 167 mm^3
- TGI(%) Day 14 ([3]; 100mpk): 153.01%
- Tumor volume (mm^3, Mean ± SD) Day 14 ([3]; 100mpk): 79 mm^3
- ΔT/ΔC(%) Day 14 ([3]; 100mpk): 9.94%
- Tumor volume (mm^3, Mean ± SD) Day 14 [4]: 112 mm^3
- F [5, 7]: 5.4%
- AUC(0-inf) ([5]; rat, in vivo, IV, 1 mg/kg, male SD rats, overnight fasting, plasma, read-out: AUCo-∞): 578 ng·h/mL
- C0 ([5]; rat, in vivo, IV, 1 mg/kg, male SD rats, overnight fasting, plasma, read-out: C0): 2120 ng/mL
- clearance ([5]; rat, in vivo, IV, 1 mg/kg, male SD rats, overnight fasting, plasma, read-out: CL): 28.8 mL/min/kg
- half-life ([5]; rat, in vivo, IV, 1 mg/kg, male SD rats, overnight fasting, plasma, read-out: T1/2 (converted)): 11.7 h
- AUC(0-inf) ([5]; rat, in vivo, PO, 30 mg/kg, male SD rats, overnight fasting, plasma, read-out: AUCo-∞): 938 ng·h/mL
- Cmax ([5]; rat, in vivo, PO, 30 mg/kg, male SD rats, overnight fasting, plasma, read-out: Cmax): 103 ng/mL
- half-life ([5]; rat, in vivo, PO, 30 mg/kg, male SD rats, overnight fasting, plasma, read-out: T1/2 (converted)): 9.6 h
- Tmax ([5]; rat, in vivo, PO, 30 mg/kg, male SD rats, overnight fasting, plasma, read-out: Tmax): 1 h
- Remaining rate (%) 0 min ([6]; Mouse plasma, 37°C, 0 min): 100.00%
- Remaining rate (%) 15 min ([6]; Mouse plasma, 37°C, 15 min): 97.30%
- Remaining rate (%) 30 min ([6]; Mouse plasma, 37°C, 30 min): 103.47%
- Remaining rate (%) 60 min ([6]; Mouse plasma, 37°C, 60 min): 104.94%
- Remaining rate (%) 120 min ([6]; Mouse plasma, 37°C, 120 min): 91.62%
- half-life ([6]; Mouse plasma, 37°C): 37.6 h

Compound: 4-((5S,5aS,6R,9S)-12-((1-((((R)-4-(difluoromethylene)-2-methylpiperidin-1-yl)methyl)cyclopropyl)methoxy)-1-fluoro-5-(methyl-d3)-5a,6,7,8,9,10-hexahydro-5H-4-oxa-3,10a,11,13,14-pentaaza-6,9-methylnaphtho[1,8-ab]hept-2-yl)-5-ethynyl-6-fluoronaphthalen-2-ol [Example 162]
- Tumor volume (mm^3, Mean ± SD) Day 0 ([3]; 30mpk): 167 mm^3
- TGI(%) Day 14 ([3]; 30mpk): 122.15%
- ΔT/ΔC(%) Day 14 ([3]; 30mpk): 16.47%
- Tumor volume (mm^3, Mean ± SD) Day 0 ([3]; 100mpk): 167 mm^3
- TGI(%) Day 14 ([3]; 100mpk): 133.67%
- Tumor volume (mm^3, Mean ± SD) Day 14 ([3]; 100mpk): 111 mm^3
- ΔT/ΔC(%) Day 14 ([3]; 100mpk): 14.04%
- Tumor volume (mm^3, Mean ± SD) Day 14 [4]: 130 mm^3
- AUCo-∞ [5, 8]: 514 ng·h/mL
- C0 [5, 8]: 438 ng/mL
- CL [5, 8]: 32.4 mL/min/kg
- T1/2 [5, 8]: 10.8 h
- F [5, 7]: 10.3%
- AUCo-∞ [5, 9]: 1591 ng·h/mL
- Cmax [5, 9]: 89 ng/mL
- T1/2 [5, 9]: 10.5 h
- Tmax [5, 9]: 4.0 h

Compound: [2H]C([2H])([2H])[C@@H]1Oc2nc(-c3cc(O)cc4ccc(F)c(C#C)c34)c(F)c3nc(OCC4(CN5CCC(=C(F)F)CC5)CC4)nc(c23)N2C[C@H]3CC[C@H](N3)[C@@H]12 [Example 161, 4-((5S,5aS,6S,9R)-12-((1-((4-(difluoromethylene)piperidin-1-yl)methyl)cyclopropyl)methoxy)-1-fluoro-5-(methyl-d3)-5a,6,7,8,9,10-hexahydro-5H-4-oxa-3,10a,11,13,14-pentaaza-6,9-methylnaphtho[1,8-ab]hept-2-yl)-5-ethynyl-6-fluoronaphthalen-2-ol]
- half-life [1]: 29.4 h
- half-life ([2]; Dog plasma, 37°C, read-out: t1/2 (converted)): 31.4 h
- Remaining rate (%) 0 min ([2]; dog, plasma, 0 h): 100.00%
- Remaining rate (%) 15 min ([2]; dog, plasma, 0.25 h): 91.74%
- Remaining rate (%) 30 min ([2]; dog, plasma, 0.5 h): 92.09%
- Remaining rate (%) 60 min ([2]; dog, plasma, 1 h): 90.97%
- Remaining rate (%) 120 min ([2]; dog, plasma, 2 h): 88.28%
- Tumor volume (mm^3, Mean ± SD) Day 0 ([3]; 30mpk): 167 mm^3
- TGI(%) Day 14 ([3]; 30mpk): 134.18%
- ΔT/ΔC(%) Day 14 ([3]; 30mpk): 13.93%
- Tumor volume (mm^3, Mean ± SD) Day 0 ([3]; 100mpk): 167 mm^3
- TGI(%) Day 14 ([3]; 100mpk): 153.75%
- Tumor volume (mm^3, Mean ± SD) Day 14 ([3]; 100mpk): 77 mm^3
- ΔT/ΔC(%) Day 14 ([3]; 100mpk): 9.79%
- Tumor volume (mm^3, Mean ± SD) Day 14 [4]: 110 mm^3
- F ([5]; rat, in vivo): 7%
- AUC(0-inf) ([5]; rat, in vivo, iv, 1 mg/kg): 1420 ng·h/mL
- C0 ([5]; rat, in vivo, iv, 1 mg/kg): 704 ng/mL
- clearance ([5]; rat, in vivo, iv, 1 mg/kg): 11.7 mL/min/kg
- half-life ([5]; rat, in vivo, iv, 1 mg/kg): 8.4 h
- AUC(0-inf) ([5]; rat, in vivo, po, 30 mg/kg): 2890 ng·h/mL
- Cmax ([5]; rat, in vivo, po, 30 mg/kg): 254 ng/mL
- Tmax ([5]; rat, in vivo, po, 30 mg/kg): 6 h
- half-life ([5]; rat, in vivo, po, 30 mg/kg): 6.9 h
- half-life ([6]; Mouse plasma, 37°C): 229 h
- Remaining rate (%) 0 min ([6]; mouse, plasma, 0 h): 100.00%
- Remaining rate (%) 15 min ([6]; mouse, plasma, 0.25 h): 101.36%
- Remaining rate (%) 30 min ([6]; mouse, plasma, 0.5 h): 101.38%
- Remaining rate (%) 60 min ([6]; mouse, plasma, 1 h): 98.35%
- Remaining rate (%) 120 min ([6]; mouse, plasma, 2 h): 101.35%

Source: patent EP4635958A1, “PYRIMIDINE-CONTAINING POLYCYCLIC DERIVATIVE INHIBITOR, AND PREPARATION METHOD THEREFOR AND USE THEREOF” (Shanghai Hansoh Biomedical Co., Ltd., priority 2022, dated 2024)
